For data set [1], the system named is isolated nematocyst capsules. As to conditions: 50 mM CaCl2; cited from earlier work.
In data set [2] the test system is nematocyte batteries in the oral arms of Pelagia nociluca. As to conditions: applied through a gelatin probe; cited from earlier work.
In data set [3] the test system is Aiptasia Mutabilis acontial filament nematocysts. As to conditions: 2 mM in seawater medium; cited from earlier work.
The test system of data set [4] is jellyfish Rhopilema nomadica nematocysts. Description: Inhibition of nematocyst discharge into human skin samples (immunohistochemical analysis). It counts as cell-based. As to conditions: human skin sections, 10 seconds contact with jellyfish tentacles. As to the method: Normal human skin was obtained from neonatal elective circumcision. The skin was immediately placed into sterile phosphate buffered saline (PBS) containing antibiotic/antimycotic. The tissue was frozen and embedded in Tissue-TekTM. It was then sectioned into 50 μm sections using a cryostat. The sections were attached to superfrost/plus microscope slide (Fisherbrand) and maintained at […] until time of use. All sections were examined to ensure that they were perpendicular to the plane of the epidermis, exposing cross-sections of epidiermis, dermis and sub-cutaneos tissue.
For immunoassay tests to detect cnidaria stinging level of human skin, a polyclonal antibody specific for nematocyst toxin was prepared, as described in Lotan et al (1996).
Briefly, the HPLC fraction containing the toxin phospholipase A2 from the jellyfish Rhopilema nomadica was isolated and injected into rabbits as described in Vaitukaitis, pp. 46–52, “Immunochemical Techniques, Part B,” in Methods in enzymology, vol. 73, ed. Larson & Vunkis (academic Press, New York, 1981). Serum was collected from the rabbits after two injections, and the presence of antibody against the jellyfish toxin was examined on immunoblots.
The slides prepared and frozen as described above were thawed at room temperature. The slides were submersed in sea water and then attached to jellyfish or sea anemone tentacles for 10 seconds. The tentacles were detached, the slide washed with PBS, and blocked using 5% Fetal Bovine Serum, and 0.1% Triton X100 in PBS (blocking solution). All washing incubation steps were conducted on a tilting shaker at room temperature. The slides were incubated at 10 ml of block solution containing a 1:2, 500 dilution of the anti-toxin antibody for one hour. After incubation, the slide were washed five times for five minutes each wash with 100 mL of 0.1% TritonX100 in PBS (Wash solution). […]
Twelve sections of human skin samples were tested in each experiment. […] The number of nematocysts that penetrated the skin was determined using immunohistochemical analysis.

Data set [5] can be described thus: Water resistance of ointment on virgin wool squares in seawater (atomic absorption). As to conditions: 80 RPM. It counts as physicochemical. The method, then: To determine the water resistance of an ointment containing 50 mM LaCl3, prepared according the above-described conditions, three squares (10×10 CM) of virgin wool, keratin protein that is used as a substrate to approximate human skin, were used. Each square of wool was treated with 1-gram of ointment containing 50 mM LaCl3. After 20 minutes of drying at room temperature, the squares of wool were immersed in one liter of seawater and agitated (80 RPM) for 30 minutes, 60 minutes, or 120 minutes. The ointment was extracted separately from each square of wool with 50 ml 1% Tritox100 under boiling. The Lanthanum chloride concentration of each sample of extracted ointment was monitored with the use of atomic absorption.

With `[Ca+2].[Cl-].[Cl-]` [CaCl2], the “discharge of isolated nematocyst capsules” value in data set [1] is “do not discharge”.
For the compound `[Gd+3]` [Gd^+3], the “effect on discharge of nematocyte batteries” value in data set [2] is listed as “prevents discharge”.
As for `[Cl][La]([Cl])[Cl]` [LaCl3, Lanthanum Chloride], the “effect on nematocyst discharge” value in data set [3] is listed as “inactivates nematocyst discharge”. In data set [4] (2 mM LaCl3 in ointment), the “inhibition of nematocyst penetration” value was determined as 44%. Moreover, the “reduction in the sting” value in data set [4] (5 mM LaCl3 in ointment) came out at 76%. For the same compound, the “reduction of the sting” value in data set [4] (50 mM LaCl3 in lotion) is listed as 92%. Further, in data set [5] (ointment containing 50 mM LaCl3, 30 minutes water submersion), the “LaCl3 retained in the ointment” value is 90%. In addition, in data set [5] (ointment containing 50 mM LaCl3, 60 minutes water submersion), the “Lanthanum remaining in the ointment” value is reported as 77%. Also, the “LaCl3 left in the ointment” value in data set [5] (ointment containing 50 mM LaCl3, 120 minutes water submersion) amounted to 70%.
As to `[Cl-].[Cl-].[Co+2]` [CoCl2, reference compound], the “effect on nematocyst discharge” value in data set [3] is “inactivates nematocyst discharge”.

Values taken from patent publication US7081247B2, “Composition and method for inhibiting polar capsule discharge and protecting a subject from nematocyst sting” (priority 2002, dated 2006).
